This note sets out measurements from PubChem BioAssay (NCI).

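Growth conditions: 96-well plates. Treatment: test compound, 48 hours, 5 concentrations. Analysis: linear interpolation between bracketing concentrations; unreached endpoints set to highest concentration. GI50 = concentration required for 50% inhibition of growth. TGI: concentration producing complete growth inhibition.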 A value given as a limit tells only on which side of the number the result lay.

Some test systems named below: SF-539 CNS; TK-10 renal; SN12C renal; UO-31 renal; UACC-257 melanoma; HOP-92 NSCLC; SK-MEL-2 melanoma; DU-145 prostate; NCI/ADR-RES ovarian.
What all share (experiment): NCI anticancer screen, dose series, 48 h

As to `CC(=O)Nc1ccc(OCC(O)CO)cc1` (stereo not drawn), the TGI in the assay with SF-539 CNS, with TK-10 renal, in the assay with SN12C renal, in the assay with UO-31 renal, in the assay on UACC-257 melanoma and in the assay on HOP-92 NSCLC was above 100 µM in each case. For the same compound, in the assay with SK-MEL-2 melanoma, the TGI is above 100 µM.
`COc1ccc(S(=O)(=O)N/N=C/CN2C(=O)c3ccccc3C2=O)cc1`: the TGI with SF-539 CNS, in the assay on SN12C renal, in the assay on UACC-257 melanoma and in the assay with SK-MEL-2 melanoma was above 100 µM throughout.
For the compound `O=C(OCc1ccccc1)c1ccccc1-c1c2ccc(=O)cc-2oc2cc(OCc3ccccc3)ccc12`, the TGI with SF-539 CNS amounted to 28.9 µM; in the assay on SN12C renal, 74.4 µM; in the assay on UO-31 renal it was 55.3 µM; in the assay with UACC-257 melanoma it was 67 µM; in the assay with HOP-92 NSCLC, 17.9 µM; in the assay with SK-MEL-2 melanoma, 46.7 µM.
With `CCOC(=O)C1C(=O)c2cccc(OC)c2C2COC(=O)N12` (stereo not drawn), the TGI with SF-539 CNS, in the assay on TK-10 renal, in the assay with SN12C renal, with UO-31 renal, in the assay on UACC-257 melanoma and in the assay with HOP-92 NSCLC was above 100 µM in each case. For the same compound, the TGI in the assay on SK-MEL-2 melanoma was above 100 µM.
Consider `C[C@H](CCCOS(C)(=O)=O)[C@H]1CC[C@H]2[C@@H]3CC[C@@H]4C[C@H](OS(C)(=O)=O)CC[C@]4(C)[C@H]3CC[C@]12C`, for which the GI50 with SF-539 CNS was 586 µM; in the assay on DU-145 prostate, 1160 µM; in the assay on TK-10 renal, 607 µM; with SN12C renal, 799 µM; in the assay with UO-31 renal, above 2500 µM; in the assay with UACC-257 melanoma, 816 µM. Further, the results for the GI50 in the assay with NCI/ADR-RES ovarian and in the assay with SK-MEL-2 melanoma were 10.5 µM and 989 µM, respectively. Also, the TGI with UO-31 renal, in the assay with UACC-257 melanoma and in the assay with SK-MEL-2 melanoma was above 2500 µM in each case.
On to `CC1CCC2[C@@H](C)COC3O[C@]4(C)CCC1C32OO4` (stereo partly drawn), for which the TGI in the assay with SF-539 CNS, in the assay with TK-10 renal, in the assay on SN12C renal, in the assay with UO-31 renal, in the assay with UACC-257 melanoma and in the assay on HOP-92 NSCLC was above 100 µM throughout. In the assay on SK-MEL-2 melanoma, this compound showed a TGI above 100 µM.
In the case of `CCc1cccc(CC)c1NC(=O)C1=CNC(C)=C(C(=O)Nc2c(CC)cccc2CC)C1c1ccc(O)c(OC)c1` (stereo not drawn), the TGI with SF-539 CNS is 51.3 µM; with TK-10 renal, above 100 µM; with SN12C renal it was above 100 µM; in the assay on UO-31 renal, above 100 µM; with UACC-257 melanoma it was 92.7 µM; in the assay on HOP-92 NSCLC, above 100 µM. The compound also yielded a TGI with SK-MEL-2 melanoma of 91.8 µM.
As for `CCN(CC)c1ccc(N=C2C=CC(=C(C#N)C#N)c3ccccc32)c(C)c1`, the TGI amounted to 9.58 µM with TK-10 renal; 7.86 µM with SN12C renal; 6.95 µM in the assay on UO-31 renal; 5.78 µM in the assay with UACC-257 melanoma; 2.19 µM in the assay on HOP-92 NSCLC; 5.48 µM in the assay with SK-MEL-2 melanoma.
In the case of `COc1ccc2c(c1)O/C(=C\c1ccc([N+](=O)[O-])s1)C2=O`, the GI50 in the assay on DU-145 prostate was 2.53 µM; in the assay on TK-10 renal it was above 22.5 µM; with SN12C renal, 2.28 µM; in the assay on HOP-92 NSCLC it was 1.57 µM; with NCI/ADR-RES ovarian, 4.52 µM. The TGI with DU-145 prostate was above 24.8 µM; in the assay on TK-10 renal, above 100 µM; in the assay on SN12C renal it was above 100 µM; in the assay on UACC-257 melanoma it was above 100 µM; with HOP-92 NSCLC it was 5.37 µM; in the assay on NCI/ADR-RES ovarian, above 100 µM. Also, the TGI with SK-MEL-2 melanoma is above 27 µM.
Turning to `CN/N=C(/CC(=O)c1sc(NNC(C)=O)nc1C)C(=O)Nc1ccc(OC)cc1OC`, the TGI in the assay with SF-539 CNS, in the assay on TK-10 renal, in the assay with SN12C renal, with UO-31 renal, with UACC-257 melanoma and with HOP-92 NSCLC was above 100 µM in each case. The TGI in the assay on SK-MEL-2 melanoma was above 100 µM.
Turning to `N#CC12CC3(CCC1CCC1(C2)OCCO1)OCCO3` (stereo not drawn), the TGI in the assay on SF-539 CNS, with TK-10 renal, in the assay with SN12C renal, with UO-31 renal, with UACC-257 melanoma and in the assay on HOP-92 NSCLC was above 100 µM each time. In addition, in the assay with SK-MEL-2 melanoma, the TGI is above 100 µM.
Regarding `Nc1ncnc2c1ncn2COC/C=C/I`, the TGI in the assay on SF-539 CNS, in the assay on TK-10 renal, in the assay on SN12C renal, in the assay with UO-31 renal, in the assay on UACC-257 melanoma and with HOP-92 NSCLC was above 100 µM each time. In addition, the TGI with SK-MEL-2 melanoma is above 100 µM.
Regarding `CCCCCC/C(CC(=O)CCC(=O)NCCc1ccccc1)=N\NC(=O)c1ccc2ccccc2c1O`, the TGI was above 100 µM in the assay on TK-10 renal; above 100 µM in the assay with SN12C renal; above 100 µM with UO-31 renal; above 100 µM with UACC-257 melanoma; above 100 µM with HOP-92 NSCLC; 53.7 µM in the assay on SK-MEL-2 melanoma.
Take `ClCCCN1CCCCC1CCl` (stereo not drawn): the TGI with SF-539 CNS, with TK-10 renal, in the assay on SN12C renal, in the assay with UO-31 renal, in the assay on HOP-92 NSCLC and in the assay with SK-MEL-2 melanoma was above 100 µM each time.
Regarding `O=C1OC(=O)C2C1C1C(c3ccccc3)=C(c3ccccc3)C2(O)C2C(=O)OC(=O)C12` (stereo not drawn), the TGI in the assay on TK-10 renal, with SN12C renal, with UO-31 renal, with UACC-257 melanoma, in the assay on HOP-92 NSCLC and in the assay with SK-MEL-2 melanoma was above 100 µM each time.
On to `COc1c(OC2OC(CO)C(O)C(O)C2O)cc2c(c1OC)-c1ccc(OC)c(=O)cc1[C@@H](NC(C)=O)CC2` (stereo partly drawn), for which the TGI in the assay on SF-539 CNS, in the assay on TK-10 renal, in the assay on SN12C renal, in the assay on UO-31 renal, in the assay with UACC-257 melanoma and with HOP-92 NSCLC was above 100 µM each time. In the assay with SK-MEL-2 melanoma, this compound registered a TGI above 100 µM.
For the compound `Nc1cc(N)c2nc(-c3ccccc3)c(Oc3ccc(Cl)c(Cl)c3)nc2c1`, the GI50 in the assay on SF-539 CNS is 13.5 µM; with TK-10 renal, 17.6 µM; in the assay on SN12C renal, 14.5 µM; in the assay on UO-31 renal, 13.3 µM; in the assay with UACC-257 melanoma it was 28.5 µM; in the assay with NCI/ADR-RES ovarian it was 11.8 µM. Besides, the GI50 in the assay with SK-MEL-2 melanoma is 5.63 µM. Moreover, the TGI was 29.5 µM in the assay on SF-539 CNS; 27.1 µM in the assay with DU-145 prostate; 38 µM in the assay with TK-10 renal; 31.4 µM in the assay with SN12C renal; 60.7 µM with UO-31 renal; 87.2 µM in the assay on UACC-257 melanoma. The TGI came to 36.1 µM in the assay with NCI/ADR-RES ovarian and 23.3 µM in the assay on SK-MEL-2 melanoma.
